Data from patent US20250263404A1, “AMINOPYRIDINES AS ACTIVATORS OF PI3 KINASE” (UCL Business Ltd, priority 2021, published 2025).

Key:
BRK = BRK (Homo sapiens, UniProt Q13882); experiment: SelectScreen kinase profiling, BRK; format: biochemical; conditions: 1 μM of 1938, 75 μM ATP
Description: 133 protein kinases and 7 lipid kinases were counterscreened, with […] used at 1 μM, using the Adapta, Lantha and Z-LYTE assays (SelectScreen Kinase Profiling Service; Thermofisher—experimental details of these assays can be found here: https://www.thermofisher.com/uk/en/home/industrial/pharma-biopharma/drug-discovery-development/target-and-lead-identification-and-validation/kinasebiology/kinase-activity-assays.html. The tree representation in KinMap generated courtesy of Cell Signaling Technology, Inc. (www.cellsignal.com). mTORC1 (mTOR/RAPTOR/LST8) protein complex and ATM kinase and substrates were produced as previously described (Anandapadamanaban, M. et al. Science (New York, NY 366, 203-210 (2019); Baretic, D. et al. Sci Adv 3, e1700933 (2017). Screening of 1938 was conducted using SuperSep Phos-Tag 50 μmol/l 100×100×6.6 mm 17-well (192-18001/199-18011) gels. For ATM assays, 100 nM ATM was incubated for 30 min at 30° C. with 5 μM GST-p53 and 1 mM ATP, in the absence or presence of 200 μM 1938 in ATM Kinase Buffer (50 mM HEPES pH 7.5, 100 mM NaCl, 10% glycerol, 2 mM […], 5 mM MgCl2). […] Gels were then stained using InstantBlue™ Coomassie stain, and then quantified using BioRad Image Lab Software. […]

PIP3 levels in MEFs = experiment: PIP3 measurement by mass spectrometry in MEFs; format: cell-based, mouse
Description: FIG. 21. a, MEFs were stimulated for the indicated time points with 1938 (5 μM) or for 2 min with PDGF (20 ng/ml) or insulin (100 nM), followed by lipid extraction and PIP3 measurement by mass spectrometry. b, MEFs were stimulated for 2 min with increasing doses of 1938 or PDGF, followed by lipid extraction and PIP3 measurement by mass spectrometry. c, A549 cells were stimulated for 2 min with increasing doses of 1938 or insulin, or 10 ng/ml PDGF, followed by lipid extraction and PIP3 measurement by mass spectrometry.
Class I PI3Ks phosphorylate the PtdIns(4,5)P2 lipid in the plasma membrane to generate PtdIns(3,4,5)P3 (or PIP3), which can be converted to PtdIns(3,4)P2 by the action of 5-phosphatases. Treatment of MEFs (Mouse Embryonic Fibroblasts) with 1938 very rapidly (within 30 sec) led to increased PIP3 levels, as assessed by mass spectrometry, maxing at 5 min and maintained at this maximum level for up to 40 min (FIG. 21a). […] The observation of different levels of PIP3 induced by these growth factors is in line with the notion that PI3Kα is the sole mediator of PIP3 production downstream of insulin. This contrasts with PDGF, which activates both PI3Kα and PI3Kβ, with the latter PI3K isoform contributing substantially to acute PDGF-stimulated PIP3 generation in MEFs, correlating with the higher PIP3 levels induced by this agonist compared to insulin and 1938 (FIG. 21a). In the same experiment as in FIG. 21a, clear PI(3,4)P2 signal was detected in MEFs upon PDGF stimulation but not with 1938 (at 5 μM). This is consistent with a higher threshold for detection of PI(3,4)P2 compared to PIP3 by mass spectrometry (due primarily to background contamination, as discussed by Malek et al.), together with the relatively lower PI3K activation by 1938 compared to a high dose of PDGF, as is also illustrated by the experiments shown below.
These maximal 1938-induced PIP3 levels are below those required to give rise to sufficient PI(3,4)P2 to be detectable by mass spectrometry, a conclusion also supported by the observation that substantial levels of PIP3 induced by lower doses of PDGF (e.g. 0.5 ng/ml) were also not sufficient to give rise to levels of PI(3,4)P2 detectable by mass. […] A strong PIP3 response was also observed with insulin in these cells, with no PIP3 induced by PDGF, in line with the absence of this receptor in epithelial cells, including in A549.

Chain of BRK (Q13882 whole entry): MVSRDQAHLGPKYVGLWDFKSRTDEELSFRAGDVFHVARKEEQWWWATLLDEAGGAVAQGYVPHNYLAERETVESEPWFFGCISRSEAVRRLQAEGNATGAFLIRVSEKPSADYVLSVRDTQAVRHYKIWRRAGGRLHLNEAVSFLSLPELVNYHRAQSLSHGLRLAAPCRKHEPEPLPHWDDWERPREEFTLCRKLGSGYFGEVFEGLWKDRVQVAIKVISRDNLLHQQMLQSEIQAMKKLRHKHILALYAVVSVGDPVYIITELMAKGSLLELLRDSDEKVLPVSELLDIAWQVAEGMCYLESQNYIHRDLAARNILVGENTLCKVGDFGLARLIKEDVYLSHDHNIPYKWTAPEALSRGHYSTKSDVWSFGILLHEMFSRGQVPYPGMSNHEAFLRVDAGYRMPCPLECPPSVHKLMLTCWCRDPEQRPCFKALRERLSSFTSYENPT

Question: Which results are given for CCN1CCN(c2ccc(Nc3cc(Nc4cccc5c4N(C(C)=O)CC5)ccn3)cc2)CC1 [Example 1938]?
Answer: inhibition of BRK (BRK): 56%; concentration at which PIP3 induction plateaus (PIP3 levels in MEFs; 2 min): around 10 μM; duration of maximum PIP3 level (PIP3 levels in MEFs; 1938 5 μM): up to 40 min; time of maximum PIP3 level (PIP3 levels in MEFs; 1938 5 μM): 5 min; time to increased PIP3 levels (PIP3 levels in MEFs; 1938 5 μM): ≤ 30 s; EC50 (PIP3 levels in MEFs; Mus musculus, 2 min, fixed 2 min time point, read-out: EC50 of PIP3 induction): ~5 µM
